Legend:
[1] = system: Phenion Full-Thickness Skin models; assay: Hydration level in synchronized human full-thickness skin models; type: cell-based; conditions: 0.5 mg/ml, 48 hours of treatment, one assay
Method: Measurement of Hydration Level in Synchronized Human Full-Thickness Skin Models.
Immediately after arrival, the Phenion® Full-Thickness Skin models (HENKEL) are placed in Petri dishes (5 skin models per condition) according to the supplier's instructions in ALI medium (HENKEL). After 72 hours incubation at 37° C., 5% CO2, a synchronization protocol is initialized. For this purpose, skin models are subjected to two alternative cycles of 12 hours each at 37° C. in 5% CO2 humidified air (day mode) and 33° C. in 5% CO2 humidified air (night mode). At the beginning of the synchronization, pre-treatment measurement of hydration at 7:30 hours is tested in skin models. Hydration measurements of the epidermis are performed with DPM 9003 BT™ (NOVA® Technology Corporation) and with MoistureMeter SC™ (Delphin). For pre-treatment measurements, skin model's surface is washed with 5 ml of Phosphate Buffered Saline (PBS, Sigma). […]
The results in Table 13 show the mean of the percentage of hydration levels at 7:30 hours after 48 hours of treatment relative to hydration levels in basal conditions. […] These values are calculated for one assay. […]
The results in Table 14 represent the mean of the percentage of hydration levels at 7:30 hours after 48 hours of treatment relative to hydration levels in basal conditions at the same time. […] These values are calculated for one assay. […]

[2] = system: CRY2 (cryptochrome circadian clock 2); assay: Clock gene expression in synchronized HEKa, real time PCR: CRY2; type: cell-based, Human; conditions: 0.5 mg/ml
Method: (§1) In Vitro Study of Clock Genes Expression in Synchronized Human Epidermal Keratinocytes from Adult (HEKa) Using Real Time PCR Arrays. HEKa cells (Life Technologies) are seeded at 3.0×10^5 cells/well in 12-well plates and incubated in culture medium, Keratinocyte growth medium supplemented with Mix C39016-CaCl2 solution (Promocell). For synchronization, cells were subjected to two alternative cycles of 12 hours each at 37° C. in 5% CO2 humidified air (day mode) and 33° C. in 5% CO2 humidified air (night mode). 12 hours after starting synchronization, cells are incubated with the synthetic peptide […] (PEP-1, H-[SEQ ID. NO. 2]-NH2) at 0.5 mg/ml in culture medium. Cells treated with medium alone are used as basal condition. At the end of synchronization, cell lysates are collected at two different times: 7:30 hour (early morning point) and 11:30 hour (midday point). […] After RNA elution, quantification and analysis of purity of RNA samples are performed with a nanodrop (Thermo). […] SYBR Green binds to double-stranded DNA molecules and emits fluorescence which is quantified, and the fluorescence intensity is proportional to the amount of the product in the PCR reaction. […] Fold change relative to the expression of the sample genes and reference genes is calculated using normalized expression (ΔΔ(Ct)) method using CFX Manager Software (BioRad).

[3] = system: PER3 (period circadian clock 3); assay: Clock gene expression in synchronized HEKa, real time PCR: PER3; type: cell-based, Human; conditions: 0.5 mg/ml
Method: as §1

[4] = system: Phenion Full-Thickness Skin models; assay: Lipidomics profile (UHPLC-MS) in synchronized human full-thickness skin models; type: cell-based; conditions: 0.5 mg/ml, 48 hours of treatment, 7:30 h, one assay
Text: Analysis of Lipidomics Profile in Synchronized Human Full-Thickness Skin Models. Lipidomic profile from human skin models can be assessed by measuring using an ultrahigh performance liquid chromatography-mass spectrometry (UHPLC-MS). The main objective of this experiment is to evaluate the lipidomic profile of synchronized human skin models after the treatment with the peptide […] (PEP-1, H-[SEQ ID. NO. 2]-NH2) in order to determine ceramide skin content and the PC-DHA/PC ratio. After arrival, the Phenion® Full-Thickness Skin models ([…]) are placed in Petri dishes (5 skin models per condition) according to the supplier's instructions in ALI medium ([…]). After 72 hours incubation at 37° C., 5% CO2, a synchronization protocol is initialized. For this purpose, skin models are subjected to two alternative cycles of 12 hours each at 37° C. in 5% CO2 humidified air (day mode) and 33° C. in 5% CO2 humidified air (night mode). Skin models are treated with the peptide […] (PEP-1, H-[SEQ ID. NO. 2]-NH2) at 0.5 mg/ml both in the above surface (50 μl of treatment) of the models and within the Petri-dish containing medium. Skin models treated with medium are used as a basal control condition. This treatment is […] hours in the same conditions. […] These values are calculated for one assay. […] These values are calculated for one assay.

H-Phe-Trp-Met-Lys-Arg-Lys-Arg-Val-Pro-NH2 (H-FWMKRKRVP-NH2) [PEP-1]
Hydration level (%) ([1]; 7:30 h, relative to basal conditions 7:30 h, MoistureMeter SC): 110.1% | Hydration level at 7:30 hours (%) ([1]; relative to basal conditions, DPM9003 BT): 131.6% | Fold induction respect to Basal condition at 7:30 h (%) [2]: 132.5% | Fold induction respect to Basal condition at 7:30 h (%) [3]: 182.5% | Ceramides amount (%) ([4]; relative to basal condition 7:30 h): 147.6% | Percentage PC-DHA/PC ratio (%) ([4]; relative to basal conditions 7:30 h): 120.2%

Source: patent US11896704B2, “Compounds useful for the treatment and/or care of the skin, hair, nails and/or mucous membranes” (LUBRIZOL ADVANCED MATERIALS, INC., priority 2017, dated 2024)
